What was measured:
ZAP70 C117 (P43403) = target: T1, ZAP70 C117 (P43403) (Homo sapiens, UniProt P43403); experiment: Competitive isoTOP-ABPP, cell lysates; type: binding; settings: for isoTOP-ABPP ratio (reactivity profile), P43403_C117: 500 μm in-vitro ramos; for isoTOP-ABPP ratio, P43403_C117: 500 μM, invitro
T1 sequence (P43403 1-619): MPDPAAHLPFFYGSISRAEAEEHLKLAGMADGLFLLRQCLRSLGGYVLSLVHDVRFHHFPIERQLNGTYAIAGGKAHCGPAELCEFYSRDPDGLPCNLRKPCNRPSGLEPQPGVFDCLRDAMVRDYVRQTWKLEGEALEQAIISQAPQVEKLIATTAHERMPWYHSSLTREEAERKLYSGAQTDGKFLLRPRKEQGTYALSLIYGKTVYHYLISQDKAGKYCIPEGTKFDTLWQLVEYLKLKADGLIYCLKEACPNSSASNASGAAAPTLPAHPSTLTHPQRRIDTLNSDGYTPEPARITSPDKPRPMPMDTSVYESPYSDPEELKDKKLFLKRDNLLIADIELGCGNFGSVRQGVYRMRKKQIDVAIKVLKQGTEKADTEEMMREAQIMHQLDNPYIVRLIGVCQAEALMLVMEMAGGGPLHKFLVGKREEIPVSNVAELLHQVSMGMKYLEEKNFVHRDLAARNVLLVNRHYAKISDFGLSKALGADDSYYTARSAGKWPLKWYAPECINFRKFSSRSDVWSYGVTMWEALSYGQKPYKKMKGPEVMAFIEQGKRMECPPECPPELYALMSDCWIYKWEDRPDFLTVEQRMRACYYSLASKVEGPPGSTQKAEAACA

KDM3A C251 (Q9Y4C1) = target: T2, KDM3A C251 (Q9Y4C1) (Homo sapiens, UniProt Q9Y4C1); experiment: Competitive isoTOP-ABPP, cell lysates; type: binding; settings: for R value (DMSO/fragment): 500 μM
T2 sequence (Q9Y4C1 1-1321): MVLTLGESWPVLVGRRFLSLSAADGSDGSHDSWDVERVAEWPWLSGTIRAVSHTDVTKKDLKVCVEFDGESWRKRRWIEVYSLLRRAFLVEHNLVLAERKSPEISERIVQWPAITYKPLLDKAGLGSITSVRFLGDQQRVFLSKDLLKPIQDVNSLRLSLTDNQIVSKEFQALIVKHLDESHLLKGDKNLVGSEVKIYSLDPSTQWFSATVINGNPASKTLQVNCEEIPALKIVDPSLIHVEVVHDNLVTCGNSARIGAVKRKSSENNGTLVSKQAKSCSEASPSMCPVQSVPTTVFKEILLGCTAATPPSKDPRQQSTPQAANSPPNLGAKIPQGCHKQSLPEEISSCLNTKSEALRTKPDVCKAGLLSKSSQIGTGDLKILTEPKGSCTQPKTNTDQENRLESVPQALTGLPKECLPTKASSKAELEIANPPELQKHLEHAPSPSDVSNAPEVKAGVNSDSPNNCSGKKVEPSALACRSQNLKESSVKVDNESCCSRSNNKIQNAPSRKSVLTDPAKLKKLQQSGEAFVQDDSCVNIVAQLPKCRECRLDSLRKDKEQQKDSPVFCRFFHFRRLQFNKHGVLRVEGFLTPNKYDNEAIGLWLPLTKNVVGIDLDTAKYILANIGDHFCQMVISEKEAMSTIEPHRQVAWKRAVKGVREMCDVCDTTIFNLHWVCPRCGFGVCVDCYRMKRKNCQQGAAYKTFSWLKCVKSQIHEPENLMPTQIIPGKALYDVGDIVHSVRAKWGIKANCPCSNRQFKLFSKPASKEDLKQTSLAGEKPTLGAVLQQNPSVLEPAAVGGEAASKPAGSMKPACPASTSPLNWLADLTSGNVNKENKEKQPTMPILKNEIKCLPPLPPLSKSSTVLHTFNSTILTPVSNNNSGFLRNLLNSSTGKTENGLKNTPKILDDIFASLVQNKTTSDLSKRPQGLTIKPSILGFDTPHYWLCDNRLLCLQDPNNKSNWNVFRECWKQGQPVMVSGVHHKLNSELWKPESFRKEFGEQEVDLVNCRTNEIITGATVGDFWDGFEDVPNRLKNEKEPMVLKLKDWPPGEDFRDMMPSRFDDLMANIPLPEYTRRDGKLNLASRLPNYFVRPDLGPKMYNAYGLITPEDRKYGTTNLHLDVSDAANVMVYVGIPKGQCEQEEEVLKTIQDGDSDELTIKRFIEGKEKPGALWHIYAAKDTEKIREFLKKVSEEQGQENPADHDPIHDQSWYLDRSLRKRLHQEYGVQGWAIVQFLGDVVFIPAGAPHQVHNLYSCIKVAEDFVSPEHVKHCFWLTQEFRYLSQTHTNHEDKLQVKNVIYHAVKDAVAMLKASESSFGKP

COc1ccccc1OCCNC(=O)CCl [compound 28]
isoTOP-ABPP ratio (reactivity profile), P43403_C117 (ZAP70 C117 (P43403)): 1.1

O=C(CCl)N1CCC(C(O)(c2ccccc2)c2ccccc2)CC1 [compound 20]
isoTOP-ABPP ratio (reactivity profile), P43403_C117 (ZAP70 C117 (P43403)): 20.0

CC(Br)C(=O)Nc1cc(C(F)(F)F)cc(C(F)(F)F)c1 (stereo not shown) [compound 24]
isoTOP-ABPP ratio (reactivity profile), Q9Y4C1_C251 (KDM3A C251 (Q9Y4C1); 500 μm in-vitro ramos): 1.3

O=C(CCl)NC12CC3CC(CC(C3)C1)C2 [compound 21]
isoTOP-ABPP ratio (reactivity profile), Q9Y4C1_C251 (KDM3A C251 (Q9Y4C1); 500 μm in-vitro ramos_231): 0.7

O=C(CCl)Nc1cc(C(F)(F)F)cc(C(F)(F)F)c1 [compound 3]
R value (DMSO/fragment) (KDM3A C251 (Q9Y4C1); in vitro, MDA-MB-231): 4.4 | R value (DMSO/fragment) (KDM3A C251 (Q9Y4C1); invitro, ramos): 4.0

C=CC(=O)N(c1ccccc1)C1CCCCC1 [compound 46]
isoTOP-ABPP reactivity profile ratio, Q9Y4C1_C251 (KDM3A C251 (Q9Y4C1); 500 μm, in-vitro_ramos_231): 1.0

C=CC(=O)N(Cc1cccnc1)c1ccc(Oc2ccccc2)c(C(F)(F)F)c1 [compound 15]
isoTOP-ABPP ratio (reactivity profile), P43403_C117 (ZAP70 C117 (P43403)): 20.0

O=C(CCl)N1CCN(S(=O)(=O)c2ccccc2F)CC1 [compound 10]
isoTOP-ABPP ratio, P43403_C117 (ZAP70 C117 (P43403); 231): 20.0 | isoTOP-ABPP ratio, P43403_C117 (ZAP70 C117 (P43403); ramos): 20.0

From patent publication US10670605B2, “Cysteine reactive probes and uses thereof” (The Scripps Research Institute, priority 2015, dated 2020)
